Like-named read-outs stand apart in the source and are kept apart here.
Experiments:
[1] = target: FXR ligand binding domain (Homo sapiens (Human), UniProt Q96RI1); assay: Mammalian one hybrid (M1H) Gal4 reporter gene assay in HEK293 cells; format: cell-based
Description: Determination of a ligand mediated Gal4 promoter driven transactivation to quantify ligand binding mediated activation of FXR was performed as follows.
The cDNA part encoding the FXR ligand binding domain was cloned into vector pCMV-BD (Stratagene) as a fusion to the yeast GAL4 DNA binding domain under the control of the CMV promoter. […] The plasmid pFR-Luc (Stratagene) was used as the reporter plasmid, containing a synthetic promoter with five tandem repeats of the yeast GAL4 binding sites, driving the expression of the Photinus pyralis (American firefly) luciferase gene as the reporter gene. In order to improve experimental accuracy the plasmid pRL-CMV (Promega) was cotransfected. pRL-CMV contains the constitutive CMV promoter, controlling the expression of the Renilla reniformis luciferase. All Gal4 reporter gene assays were done in HEK293 cells (obtained from DSMZ, Braunschweig, Germany) grown in MEM with L-Glutamine and Earle's BSS supplemented with 10% fetal bovine serum, 0.1 mM nonessential amino acids, 1 mM sodium pyruvate, and 100 units Penicilin/[…] per mL at 37° C. in 5% CO2. Medium and supplements were obtained from Invitrogen. For the assay, […] cells were plated per well in 96 well plates in 100 μL per well MEM without Phenol Red and L-Glutamine and with Earle's BSS supplemented with 10% charcoal/dextran treated FBS (HyClone, South Logan, Utah), 0.1 mM nonessential amino acids, 2 mM glutamine, 1 mM sodium pyruvate, and 100 units Penicilin/[…] per mL, incubated at 37° C. in 5% CO2. The following day the cells were >90% confluence. […] MEM with the same composition as used for plating cells was added 2-4 h after addition of transfection mixture. Then compound stocks, prediluted in MEM were added (final vehicle concentration not exceeding 0.1%). […] All experiments were done in triplicates.

[2] = target: human FXR alpha ligand binding domain (Homo sapiens (Human), UniProt Q96RI1); assay: FRET activity assay (LANCE; ligand mediated FXR-LBD / SRC-1 cofactor peptide interaction); format: biochemical
Description: Determination of a ligand mediated cofactor peptide interaction to quantify ligand binding to the nuclear receptor FXR was performed as follows.
Preparation of human FXR alpha ligand binding domain: The human FXRalpha LBD was expressed in E. coli strain BL21(DE3) as an N-terminally GST tagged fusion protein. The DNA encoding the FXR ligand binding domain was cloned into vector pDEST15 (Invitrogen). Expression was under control of an IPTG inducible T7 promoter. The amino acid boundaries of the ligand binding domain were amino acids 187-472 of Database entry NM_005123 (RefSeq).
Expression and purification of the FXR-LBD: An overnight preculture of a transformed E. coli strain was diluted 1:20 in LB-Ampicillin medium and grown at 30° C. to an optical density of OD600=0.4-0.6. Gene expression was then induced by addition of 0.5 mM IPTG. Cells were incubated an additional 6 h at 30° C., 180 rpm. Cells were collected by centrifugation (7000×g, 7 min, rt). Per liter of original cell culture, cells were resuspended in 10 mL lysis buffer (50 mM Glucose, 50 mM Tris pH 7.9, 1 mM EDTA and 4 mg/mL lysozyme) and left on ice for 30 min. Cells were then subjected to sonication and cell debris removed via centrifugation (22000×g, 30 min, 4° C.). Per 10 mL of supernatant 0.5 mL prewashed Glutathione 4B sepharose slurry (Qiagen) was added and the suspension kept slowly rotating for 1 h at 4° C. Glutathione 4B sepharose beads were pelleted by centrifugation (2000×g, 15 sec, 4° C.) and washed twice in wash buffer (25 mM Tris, 50 mM KCl, 4 mM MgCl2 and 1M NaCl). The pellet was resuspended in 3 mL elution buffer per liter of original culture (elution buffer: 20 mM Tris, 60 mM KCl, 5 mM MgCl2 and 80 mM glutathione added immediately prior to use as powder). The suspension was left rotating for 15 min at 4° C., the beads pelleted and eluted again with half the volume of elution buffer than the first time. The eluates were pooled and dialysed overnight in 20 mM Hepes buffer (pH 7.5) containing 60 mM KCl, 5 mM MgCl2 as well as 1 mM dithiothreitol and 10% (v/v) glycerol. The protein was analysed by SDS-Page.
The method measures the ability of putative ligands to modulate the interaction between the purified bacterial expressed FXR ligand binding domain (LBD) and a synthetic biotinylated peptide based on residues 676-700 of SRC-1 (LCD2, 676-700). The sequence of the peptide used was B-[…]-COOH (SEQ ID NO: 1) where the N-terminus was biotinylated (B). The ligand binding domain (LBD) of FXR was expressed as fusion protein with GST in BL-21 cells using the vector pDEST15. Cells were lysed by sonication, and the fusion proteins purified over glutathione sepharose (Pharmacia) according to the manufacturers instructions. For screening of compounds for their influence on the FXR-peptide interaction, the Perkin Elmer LANCE technology was applied. This method relies on the binding dependent energy transfer from a donor to an acceptor fluorophor attached to the binding partner of interest. For ease of handling and reduction of background from compound fluorescence LANCE technology makes use of generic fluorophore labels and time resolved detection.
Assays were done in a final volume of 25 μL in a 384 well plate, in a Tris-based buffer (20 mM Tris-HCl pH 7.5; 60 mM KCl, 5 mM MgCl2; 35 ng/μL BSA), containing 20-60 ng/well recombinantly expressed FXR-LBD fused to GST, 200-600 nM N-terminally biotinylated peptide, representing SRC1 aminoacids 676-700, 200 ng/well Streptavidin-x1APC conjugate (Prozyme) and 6-10 ng/well Eu W1024-antiGST (Perkin Elmer). DMSO content of the samples was kept at 1%. After generation of the assay mix and diluting the potentially FXR modulating ligands, the assay was equilibrated for 1 h in the dark at rt in FIA-plates black 384 well (Greiner). The LANCE signal was detected by a Perkin Elmer VICTOR2VTM Multilabel Counter. The results were visualized by plotting the ratio between the emitted light at 665 and 615 nm. […]

[3] = Gal4-FXR-LBD luciferase reporter, HEK293 cells, 16 h, read-out: M1H EC50
[4] = GST-FXR-LBD, biotinylated SRC-1 peptide 676-700, read-out: FRET EC50

Sequence of human FXR alpha ligand binding domain (Q96RI1 other isoform, or with tags, fused parts or gaps): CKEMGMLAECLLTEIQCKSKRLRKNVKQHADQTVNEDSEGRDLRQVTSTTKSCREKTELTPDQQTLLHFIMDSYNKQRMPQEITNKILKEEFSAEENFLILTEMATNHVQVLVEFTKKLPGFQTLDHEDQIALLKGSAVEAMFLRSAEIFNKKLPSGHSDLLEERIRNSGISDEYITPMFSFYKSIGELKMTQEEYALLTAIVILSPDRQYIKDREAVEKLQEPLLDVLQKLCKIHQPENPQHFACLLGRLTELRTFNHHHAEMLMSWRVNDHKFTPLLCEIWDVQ
Sequence of FXR ligand binding domain (Q96RI1 other isoform, or with tags, fused parts or gaps): as above

Row | SMILES | EC50 [1, 3] [nM] | EC50 [2, 4] [nM] | EC50 [1] [nM] | EC50 [2] [nM]
1 | O=C(O)c1ccc(N2CC(O)(c3ccc(OCc4c(-c5c(Cl)cccc5Cl)noc4C4CC4)cc3Cl)C2)nc1C(F)(F)F [Example 6, 6-(3-(2-chloro-4-((5-cyclopropyl-3-(2,6-dichlorophenyl)isoxazol-4-yl)methoxy)phenyl)-3-hydroxyazetidin-1-yl)-2-(trifluoromethyl)nicotinic acid] | 56 | 3.1 | – | –
2 | O=C(O)c1ccc(N2CC(O)(c3ccc(OCc4c(-c5c(Cl)cncc5Cl)noc4C4CC4)cc3Cl)C2)nc1 [Example 1, 6-(3-(2-chloro-4-((5-cyclopropyl-3-(3,5-dichloropyridin-4-yl)isoxazol-4-yl)methoxy)phenyl)-3-hydroxyazetidin-1-yl)nicotinic acid] | 95 | 6.1 | – | –
3 | O=C(O)c1cnc(N2CC(O)(c3ccc(OCc4c(-c5c(Cl)cccc5Cl)noc4C4CC4)cc3Cl)C2)c(F)c1 [Example 5, 6-(3-(2-chloro-4-((5-cyclopropyl-3-(2,6-dichlorophenyl)isoxazol-4-yl)methoxy)phenyl)-3-hydroxyazetidin-1-yl)-5-fluoronicotinic acid] | 4.5 | 4.8 | – | –
4 | Cc1cc(N2CC(O)(c3ccc(OCc4c(-c5c(Cl)cccc5Cl)noc4C4CC4)cc3Cl)C2)ncc1C(=O)O [Example 7, 6-(3-(2-chloro-4-((5-cyclopropyl-3-(2,6-dichlorophenyl)isoxazol-4-yl)methoxy)phenyl)-3-hydroxyazetidin-1-yl)-4-methylnicotinic acid] | 6.7 | 8.5 | – | –
5 | Cc1nc(N2CC(O)(c3ccc(OCc4c(-c5c(Cl)cccc5Cl)noc4C4CC4)cc3Cl)C2)ccc1C(=O)O [Example 3, 6-(3-(2-chloro-4-((5-cyclopropyl-3-(2,6-dichlorophenyl)isoxazol-4-yl)methoxy)phenyl)-3-hydroxyazetidin-1-yl)-2-methylnicotinic acid] | 6.9 | 4.4 | – | –
6 | O=C(O)c1ccc(N2CC(O)(c3ccc(OCc4c(-c5c(Cl)cccc5Cl)noc4C4CC4)cc3Cl)C2)nc1 [Example 2, 6-(3-(2-chloro-4-((5-cyclopropyl-3-(2,6-dichlorophenyl)isoxazol-4-yl)methoxy)phenyl)-3-hydroxyazetidin-1-yl)nicotinic acid] | 7.1 | 2.6 | – | –
7 | Cc1cc(Cl)c(-c2noc(C3CC3)c2COc2ccc(C3(O)CN(c4ncc(C(=O)O)cc4F)C3)c(Cl)c2)c(Cl)c1 [Example 9, 6-(3-(2-chloro-4-((5-cyclopropyl-3-(2,6-dichloro-4-methylphenyl)isoxazol-4-yl)methoxy)phenyl)-3-hydroxyazetidin-1-yl)-5-fluoronicotinic acid] | 26 | 57 | – | –
8 | O=C(O)c1cnc(N2CC(O)(c3ccc(OCc4c(C5CC5)cnn4-c4c(Cl)cccc4Cl)cc3Cl)C2)c(F)c1 [Example 11, 6-(3-(2-chloro-4-((4-cyclopropyl-1-(2,6-dichlorophenyl)-1H-pyrazol-5-yl)methoxy)phenyl)-3-hydroxyazetidin-1-yl)-5-fluoronicotinic acid] | 4.9 | 3.8 | – | –
9 | O=C(O)c1ccnc(N2CC(O)(c3ccc(OCc4c(-c5c(Cl)cncc5Cl)noc4C4CC4)cc3Cl)C2)c1 [Comparative Compound 2, reference compound] | 744 | 48 | – | –
10 | O=C(O)c1ccnc(N2CC(O)(c3ccc(OCc4c(-c5c(Cl)cccc5Cl)noc4C4CC4)cc3Cl)C2)c1 [Comparative Compound 1, reference compound] | – | – | 774 | 14
11 | Cc1cc(C(=O)O)cnc1N1CC(O)(c2ccc(OCc3c(-c4c(Cl)cccc4Cl)noc3C3CC3)cc2Cl)C1 [Example 4, 6-(3-(2-chloro-4-((5-cyclopropyl-3-(2,6-dichlorophenyl)isoxazol-4-yl)methoxy)phenyl)-3-hydroxyazetidin-1-yl)-5-methylnicotinic acid] | 5.1 | 3.9 | – | –
12 | O=C(O)c1cc(N2CC(O)(c3ccc(OCc4c(-c5c(Cl)cccc5Cl)noc4C4CC4)cc3Cl)C2)nc(C(F)(F)F)c1 [Comparative Compound 3, reference compound] | 131 | 47 | – | –
13 | COc1cccc(OC)c1-c1noc(C2CC2)c1COc1ccc(C2(O)CN(c3ncc(C(=O)O)cc3F)C2)c(Cl)c1 [Example 8, 6-(3-(2-chloro-4-((5-cyclopropyl-3-(2,6-dimethoxyphenyl)isoxazol-4-yl)methoxy)phenyl)-3-hydroxyazetidin-1-yl)-5-fluoronicotinic acid] | 593 | 15 | – | –
14 | O=C(O)c1cnc(N2CC(O)(c3ccc(OCc4c(-c5c(Cl)cncc5Cl)noc4C4CC4)cc3Cl)C2)c(F)c1 [Example 10, 6-(3-(2-chloro-4-((5-cyclopropyl-3-(3,5-dichloropyridin-4-yl)isoxazol-4-yl)methoxy)phenyl)-3-hydroxyazetidin-1-yl)-5-fluoronicotinic acid] | 6.4 | 3.4 | – | –
